Experimental findings from patent US9434687B2, “Detection of synthetic cannabinoids” (priority 2011, dated 2016) are described below.

Where two headings read alike, the source gives them in different places.

Holding throughout (format): binding, sheep
Assay [1] relates to IgG fraction of antiserum raised to Immunogen I. As to conditions: Antibody to Immunogen I; cross-reactants at 100 ng/ml; 1000 ng/ml; standard JWH-018. The gist of the method: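 Plates were coated with the IgG fraction of sheep antiserum raised to Immunogen I and incubated with standards (JWH-018, 0-40 ng/ml) plus hapten-HRP conjugate for 1 h at 25° C. Detection used TMB, read at 450 nm. IC50 was taken from a 4-parameter fit as the concentration giving half the zero-standard OD.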

Assay [2] concerns IgG fraction of antiserum raised to Immunogen II. Nature of the assay: Competitive ELISA, antibody RS1833B12 to Immunogen II, tracer ESC4555 (Example 36). As to conditions: Antibody to Immunogen II; cross-reactants at 100 ng/ml; 1000 ng/ml; standard JWH-018. As to the method:
An aqueous solution of each immunogen was formulated with Freund's Complete Adjuvant (FCA) to form an emulsion consisting of 2 mg/ml*immunogen in 50% (v/v) FCA. Three sheep were immunised with this emulsion (1° immunisation), 0.25 ml being intramuscularly injected at each of four sites in the flank of each animal. Subsequent immunizations (boosts) contained 1 mg/ml*immunogen. All boosts were emulsified in 50% (v/v) Freund's Incomplete Adjuvant (FIA) and were administered in the same manner as the 1° immunisation, at monthly intervals. Blood sampling took place 7 to 14 days after each boost. *The general procedure for immunogen administration is outlined above, however, it was necessary to deviate from this protocol in some cases, due to reduced immunogen concentrations (Immunogens II, IV, VII and VIII) and/or amount available (Immunogen VIII). Any deviations from the protocol described are outlined in Table 5 below and highlighted in bold.
The appropriate antibody coating dilution was determined using standard ELISA checkerboard techniques. The plate was incubated overnight at 4° C., washed 4 times over 10 minutes with Tris buffered saline containing Tween 20 (TBST) and tapped dry. […] 75 μl of conjugate (appropriate hapten-HRP) diluted in Tris buffer (pH 7.2) containing EDTA, D-mannitol, sucrose, thimerosal and BSA, was added to each of the wells. The appropriate dilution of conjugate was also determined using standard ELISA checkerboard techniques. The plate was incubated at 25° C. for 1 hour. Excess unbound conjugate was removed by washing 6 times over a 10 minute period with TBST. 125 μl of tetramethylbenzidine (TMB) substrate solution was added to each well of the plate that was then incubated for 20 minutes in the dark at room temperature. The reaction was terminated by addition of 125 μl 0.2M H2SO4 to each well. The absorbance was then measured at 450 nm using a microtiter plate reader. The data are inputted to a computer program called ‘KC Junior’. It is a 4 parameter fit curve and allow the calculation of concentrations between the standard runs.
In a similar manner to that described above, the wells of a 96-well microtiter plate were coated with the IgG fraction of the antiserum raised to Immunogens I or II.
The data set out in Tables 7-10 are generated using antibodies raised against the indicated Immunogens in a competitive binding assay with the indicated tracers, using the indicated standards
Using the calibration curves generated and employing a single level of cross reactants, these were used to determine the cross-reactivity of each immunoassay with these substances. These are the standards used for the IC50 and cross-reactivity data generation: […]

For assay [3], the system named is IgG fraction of antiserum raised to Immunogen IV. The settings on record: Antibody to Immunogen IV; cross-reactants at 100 ng/ml; 1000 ng/ml; standard JWH-018.
The subject of assay [4] is IgG fraction of antiserum raised to Immunogen VIII. As to conditions: Antibody to Immunogen VIII; cross-reactants at 100 ng/ml; 1000 ng/ml; standard JWH-018.
Assay [5] deals with IgG fraction of antiserum raised to Immunogen VII.
Where [6] appears, read: Antibody to Immunogen VII, cross-reactants at 100 ng/ml, 1000 ng/ml, standard JWH-015.

Consider `O=C(c1cccc2ccccc12)c1cn(CCCC(O)CF)c2ccccc12` (stereo not shown) [AM-2201 N-(4-hydroxypentyl) metabolite], for which the “% B/B0” value in assay [1] is given as 3.80%; in assay [2] it was 46.55%; in assay [3], 43.62%; in assay [4] it was 36.41%; in assay [5] (setting [6]), 52.75%.

On to `CN1CCCCC1Cn1cc(C(=O)c2ccccc2I)c2ccccc21` (stereo not shown) [AM-2233], for which the “% B/B0” value came out at 16.97% in assay [1]; 86.43% in assay [2]; 92.10% in assay [3]; 91.25% in assay [4]; 72.46% in assay [5] (setting [6]).

Take `CC(C)CCn1cc(C(=O)c2cccc3ccccc23)c2ccccc21` [JWH 018 N-(3-methylbutyl) isomer]: the “% B/B0” value in assay [1] was found to be 3.16%; in assay [2] it was 30.38%; in assay [3], 12.75%; in assay [4], 53.29%; in assay [5] (setting [6]), 48.81%.

Turning to `CCCCCCn1cc(C(=O)c2cccc3ccccc23)c2cc(O)ccc21` [JWH 019 5-hydroxyindole metabolite], the “% B/B0” value in assay [1] is 19.81%; in assay [2], 17.34%; in assay [3], 93.84%; in assay [4], 101.57%; in assay [5] (setting [6]), 87.58%.

`CCCCn1cc(C(=O)c2c(C)ccc3ccccc23)c2ccccc21` [JWH 073 2-methylnaphthyl analog]: the “% B/B0” value came out at 21.84% in assay [1]; 43.34% in assay [2]; 34.47% in assay [3]; 78.79% in assay [4]; 76.74% in assay [5] (setting [6]).

Consider `CCCCCn1cc(C(=O)c2c(C)ccc3ccccc23)c2ccccc21` [JWH 122 2-methylnaphthyl isomer], for which the “% B/B0” value turned out to be 33.35% in assay [1]; 27.14% in assay [2]; 26.13% in assay [3]; 61.74% in assay [4]; 85.37% in assay [5] (setting [6]).

Consider `CCCCCn1cc(C(=O)c2cccc3cc(C)ccc23)c2ccccc21` [JWH 122 6-methylnaphthyl isomer], for which the “% B/B0” value in assay [1] is on record as 12.55%; in assay [2] it was 39.17%; in assay [3], 8.12%; in assay [4], 20.46%; in assay [5] (setting [6]), 86.66%.

`CCCCCn1cc(C(=O)c2cccc3ccc(C)cc23)c2ccccc21` [JWH 122 7-methylnaphthyl isomer]: the “% B/B0” value in assay [1] worked out at 36.46%; in assay [2], 38.28%; in assay [3] it was 13.48%; in assay [4], 38.48%; in assay [5] (setting [6]), 92.44%.

`CCCCCn1c(C)c(C(=O)c2cccc3ccccc23)c2ccccc21` [JWH-007]: the “% B/B0” value in assay [1] was 32.96%; in assay [2], 66.06%; in assay [3], 60.63%; in assay [4] it was 61.76%; in assay [5] (setting [6]), 27.77%.

The IC50 is the midpoint of a concentration-inhibition curve. Regarding `CCCn1c(C)c(C(=O)c2cccc3ccccc23)c2ccccc21` [JWH-015], the “% B/B0” value in assay [1] was found to be 14.67%; in assay [2] it was 65.67%; in assay [3], 93.20%; in assay [4], 92.27%; in assay [5] (setting [6]), 17.84%; in assay [5] (JWH-015 1.25 ng/ml) it was 75%. Further, the “% B/B0” value is 62% in assay [5] (JWH-015 2.5 ng/ml); 54% in assay [5] (JWH-015 5 ng/ml); 43% in assay [5] (JWH-015 10 ng/ml); 34% in assay [5] (JWH-015 20 ng/ml); 26% in assay [5] (JWH-015 40 ng/ml); 20% in assay [5] (JWH-015 80 ng/ml). In assay [5] (Table 9 standard curve, standard concentration which produces 50% B/B0), the IC50 was determined as 5.910 ng/mL.

Regarding `CCCCn1c(C)c(C(=O)c2cccc3ccccc23)c2ccccc21` [JWH-016], the “% B/B0” value in assay [1] was determined as 20.71%; in assay [2], 68.73%; in assay [3], 91.14%; in assay [4], 75.24%; in assay [5] (setting [6]), 19.31%.

As to `CCCCCn1cc(C(=O)c2cccc3ccccc23)c2ccc(OC)cc21` [JWH-018 6-methoxyindole analogue], the “% B/B0” value in assay [1] is 10.55%; in assay [2], 20.44%; in assay [3], 90.65%; in assay [4] it was 77.22%; in assay [5] (setting [6]), 72.33%.

With `CC(C)(C)Cn1cc(C(=O)c2cccc3ccccc23)c2ccccc21` [JWH-018 N-(2,2-dimethylpropyl) isomer], the “% B/B0” value is given as 3.89% in assay [1]; 60.15% in assay [2]; 80.42% in assay [3]; 95.09% in assay [4]; 52.46% in assay [5] (setting [6]).

Regarding `CCCCCCn1cc(C(=O)c2cccc3ccccc23)c2ccccc21` [JWH-019], the “% B/B0” value in assay [1] is 7.22%; in assay [2], 15.42%; in assay [3], 21.96%; in assay [4] it was 74.50%; in assay [5] (setting [6]), 70.05%.

For the compound `CCCCCCCn1cc(C(=O)c2cccc3ccccc23)c2ccccc21` [JWH-020], the “% B/B0” value in assay [1] was 16.03%; in assay [2], 35.75%; in assay [3] it was 73.73%; in assay [4] it was 100.73%; in assay [5] (setting [6]), 81.30%.

Turning to `C=CCCCn1cc(C(=O)c2cccc3ccccc23)c2ccccc21` [JWH-022], the “% B/B0” value in assay [1] is given as 4.51%; in assay [2] it was 11.72%; in assay [3], 10.61%; in assay [4] it was 28.94%; in assay [5] (setting [6]) it was 58.44%.

Take `CC(O)CCn1cc(C(=O)c2cccc3ccccc23)c2ccccc21` (stereo not shown) [JWH-073 N-(3-hydroxybutyl) metabolite]: the “% B/B0” value in assay [1] turned out to be 3.10%; in assay [2] it was 54.52%; in assay [3], 53.52%; in assay [4], 94.04%; in assay [5] (setting [6]) it was 43.39%.

With `O=C(c1cccc2ccccc12)c1cn(CCCCO)c2ccccc12` [JWH-073 N-(4-hydroxybutyl) metabolite], the “% B/B0” value stood at 3.22% in assay [1]; 60.01% in assay [2]; 52.61% in assay [3]; 57.99% in assay [4]; 48.81% in assay [5] (setting [6]).

Turning to `O=C(O)CCCn1cc(C(=O)c2cccc3ccccc23)c2ccccc21` [JWH-073 N-butanoic acid metabolite], the “% B/B0” value in assay [1] was determined as 6.88%; in assay [2], 92.20%; in assay [3], 98.95%; in assay [4] it was 94.98%; in assay [5] (setting [6]) it was 60.01%.

For `CCCCCn1cc(C(=O)c2cccc3c(OC)cccc23)c2ccccc21` [JWH-081 5-methoxynaphthyl isomer], the “% B/B0” value is 18.51% in assay [1]; 60.90% in assay [2]; 6.24% in assay [3]; 26.56% in assay [4]; 94.16% in assay [5] (setting [6]).

As to `Cc1ccc(C(=O)c2cn(CCCCCO)c3ccccc23)c2ccccc12` [JWH-122 N-(5-hydroxypentyl) metabolite], the “% B/B0” value came out at 42.80% in assay [1]; 71.76% in assay [2]; 25.72% in assay [3]; 48.67% in assay [4]; 83.65% in assay [5] (setting [6]).

For the compound `CCCCCn1cc(C(=O)c2ccc(C)c3ccccc23)c2ccccc21` [JWH-122], the “% B/B0” value worked out at 62.98% in assay [1]; 44.55% in assay [2]; 3.94% in assay [3]; 14.43% in assay [4]; 89.37% in assay [5] (setting [6]).
